In experiment [1] the target is AMPA receptors (rat cerebral cortical membrane homogenate). Put plainly: 3H-AMPA binding (Test 1): displacement of 3H-AMPA from AMPA type receptors. Particulars: 5 nM 3H-AMPA, 0° C., 30 min, pH 7.1. How it is done:
The affinity of a substance for one or more of the different types of excitatory amino acid receptors may be studied in simple binding experiments. In essense, the method involves incubation of a particular selected radiolabelled ligand and the particular specific substance to be investigated with brain homogenate which contains the receptor. Measurement of receptor occupancy is made by determination of the radioactivity bound to the homogenate and subtraction of nonspecific binding.
AMPA receptor binding may be studied by using ^3 H-AMPA as radioligand.
The pharmacological properties of the compounds of the present invention can be illustrated by determining their capability for displacing radioactively labelled 2-amino-3-hydroxy-5-methyl-4-isoxazolepropionic acid (AMPA) from the AMPA type receptors. […]
500 μl of thawed rat cerebral cortical membrane homogenate in Tris-HCl (30 mM), CaCI2 (2.5 mM) and KSCN (100 mM) pH 7.1 were incubated at 0° C. for 30 min. with 25 μl ^3 H-AMPA (5 nM final concentration) and the test compound and buffer. Non specific binding was determined by incubation with L-glutamic acid ([…] final concentration). […] Bound radioactivity was measured by scintillation counting. IC50 was determined by Hill analysis of at least four concentrations of test compound.
A general note: In a radioligand displacement assay an active substance lowers the binding of a labelled ligand.

Experiment [2] concerns quisqualic acid stimulated spreading depression in chicken retina. Put plainly: Spreading depression (Test 2): inhibition of quisqualic acid stimulated spreading depression in chicken retina. Format: cell-based. Particulars: Gallus gallus, 0.25 h, quisqualate 1 μg/ml, 26° C., 15 min incubation with test compound, read-out: TEST 2 IC50 (50% maximal inhibition of quisqualic acid stimulated spreading depression). An excerpt:
The influence of glutamic add analogues on secondary effects of glutamate receptor interactions may be studied in vitro by using the phenomenon of spreading depression in chicken retina. Such experiments will provide information as to the efficades (agonist/antagonist) of the test substances. This is in contrast to binding studies, which only provide information on the affinities of the compounds for the receptor.
The pharmacological properties of the compounds of the present invention can be illustrated by determining their capability for displacing radioactively labelled 2-amino-3-hydroxy-5-methyl-4-isoxazolepropionic acid (AMPA) from the AMPA type receptors.
The antagonism is measured by determining the IC50 value which represents the concentration which produces a ,50% maximal inhibition of quisqualic acid stimulated spreading depression in chicken retina.
Spreading depression (Test 2) […]
The eyes are initially incubated in normal P.S.S. for 15-30 min. and then transferred to P.S.S. containing quisqualate (1μ g/ml). […] The time taken for an S.D. to start in each eye is measured.
After a further 15 min. of incubation in normal P.S.S. the eyes are transferred to normal P.S.S. containing the test compound and incubated for 15 min. […] The time taken for an S.D. to start in each eye is again measured. […]

Converted amounts (≈) assume the structure as drawn.

Consider two compounds from US5504085A, “Triazolo quinoxalines and their preparation and use” (Novo Nordisk A/S, priority 1991, dated 1996).

What is called IC50 is the midpoint of a concentration-inhibition curve. In the case of `N#Cc1ccc2c(c1)[nH]c(=O)c1n[nH]c(=O)n12` [Example 4, 7-Cyano 1,2,4!triazolo 4,3-a!quinoxaline-1,4(2H, 5H)-dione], in experiment [1], the “TEST 1 IC50 (displacement of 50% of the specific binding of 3H-AMPA)” value was found to be 0.09 µg/mL. Besides, the IC50 in experiment [2] is 0.47 µg/mL (≈ 2.07 µM).

For the compound `O=c1[nH]c2cc(C(F)(F)F)ccc2n2c(=O)[nH]nc12` [Example 3, 7-Trifluoromethyl 1,2, 4!triazolo 4,3-a!quinoxaline-1,4(2H,5H)-dione], in experiment [1], the “TEST 1 IC50 (displacement of 50% of the specific binding of 3H-AMPA)” value was 1.3 µg/mL. For the same compound, the IC50 in experiment [2] was 1.3 µg/mL (≈ 4.81 µM).
